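Dose response: 5 concentrations. Exposure: 48 h. Format: 96-well plates. Endpoint: linear interpolation; highest concentration if not reached. TGI is the concentration that stops growth completely.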
Legend:
Assay in all cases: inhibition of tumour cell growth, NCI panel, 48 h
UACC-257 melanoma = tested on: UACC-257 melanoma
786-0 renal = tested on: 786-0 renal
MCF7 breast = tested on: MCF7 breast
HCC-2998 colon = tested on: HCC-2998 colon
SF-295 CNS = tested on: SF-295 CNS
SF-268 CNS = tested on: SF-268 CNS
NCI-H226 lung = tested on: NCI-H226 lung
CCRF-CEM leukemia = tested on: CCRF-CEM leukemia
A498 renal = tested on: A498 renal
HOP-62 NSCLC = tested on: HOP-62 NSCLC
U251 CNS = tested on: U251 CNS
RPMI-8226 leukemia = tested on: RPMI-8226 leukemia
HCT-15 colon = tested on: HCT-15 colon
SN12C renal = tested on: SN12C renal
SNB-75 CNS = tested on: SNB-75 CNS
ACHN renal = tested on: ACHN renal
TK-10 renal = tested on: TK-10 renal
OVCAR-3 ovarian = tested on: OVCAR-3 ovarian
SK-MEL-28 melanoma = tested on: SK-MEL-28 melanoma
OVCAR-8 ovarian = tested on: OVCAR-8 ovarian
SK-MEL-5 melanoma = tested on: SK-MEL-5 melanoma
NCI-H23 lung = tested on: NCI-H23 lung
K-562 leukemia = tested on: K-562 leukemia
PC-3 prostate = tested on: PC-3 prostate
SW-620 colon = tested on: SW-620 colon
SF-539 CNS = tested on: SF-539 CNS
HT29 colon = tested on: HT29 colon
SNB-19 CNS = tested on: SNB-19 CNS
UACC-62 melanoma = tested on: UACC-62 melanoma
UO-31 renal = tested on: UO-31 renal
RXF 393 renal = tested on: RXF 393 renal
T-47D breast = tested on: T-47D breast
HCT-116 colon = tested on: HCT-116 colon
NCI-H522 lung = tested on: NCI-H522 lung
SK-MEL-2 melanoma = tested on: SK-MEL-2 melanoma
EKVX NSCLC = tested on: EKVX NSCLC
SR leukemia = tested on: SR leukemia
OVCAR-5 ovarian = tested on: OVCAR-5 ovarian
MOLT-4 leukemia = tested on: MOLT-4 leukemia
SK-OV-3 ovarian = tested on: SK-OV-3 ovarian
KM12 colon = tested on: KM12 colon
HOP-92 NSCLC = tested on: HOP-92 NSCLC
OVCAR-4 ovarian = tested on: OVCAR-4 ovarian
M14 melanoma = tested on: M14 melanoma
DU-145 prostate = tested on: DU-145 prostate
BT-549 breast = tested on: BT-549 breast
IGROV1 ovarian = tested on: IGROV1 ovarian
A549 NSCLC = tested on: A549 NSCLC
CAKI-1 renal = tested on: CAKI-1 renal
NCI/ADR-RES ovarian = tested on: NCI/ADR-RES ovarian
MDA-MB-435 = tested on: MDA-MB-435
LOX IMVI melanoma = tested on: LOX IMVI melanoma
COLO 205 colon = tested on: COLO 205 colon
HS 578T breast = tested on: HS 578T breast
MDA-MB-231 breast = tested on: MDA-MB-231 breast

`CN(C)CCNc1ccc(NCCN(C)C)c2c1C(=O)c1ncsc1C2=O` gave a TGI (UACC-257 melanoma) of 34.7 µM, a TGI (786-0 renal) of 24 µM and a TGI (MCF7 breast) of 21.3 µM. The TGI (HCC-2998 colon) was 31.3 µM, the TGI (SF-295 CNS) was 26.6 µM and the TGI (SF-268 CNS) was 39.3 µM. It also gave a TGI (NCI-H226 lung) of 17.7 µM, a TGI (CCRF-CEM leukemia) of 10.9 µM and a TGI (A498 renal) of 28.1 µM. The TGI (HOP-62 NSCLC) was 43.6 µM, the TGI (U251 CNS) was 29.7 µM and the TGI (RPMI-8226 leukemia) was 29.4 µM. The TGI (HCT-15 colon) was 27.6 µM, the TGI (SN12C renal) was 25.7 µM and the TGI (SNB-75 CNS) was 33 µM. For the same compound, the TGI (ACHN renal) was 22.7 µM, the TGI (TK-10 renal) was 58.2 µM and the TGI (OVCAR-3 ovarian) was 37.2 µM. For the same compound, the TGI (SK-MEL-28 melanoma) was 33.7 µM, the TGI (OVCAR-8 ovarian) was 27.8 µM and the TGI (SK-MEL-5 melanoma) was 31.6 µM. The TGI (NCI-H23 lung) was 30 µM, the TGI (K-562 leukemia) was 34.3 µM and the TGI (PC-3 prostate) was 38.1 µM. The TGI (SW-620 colon) was 29.7 µM, the TGI (SF-539 CNS) was 28.1 µM and the TGI (HT29 colon) was 19.7 µM. The TGI (SNB-19 CNS) was 51 µM, the TGI (UACC-62 melanoma) was 24.6 µM and the TGI (UO-31 renal) was 32.2 µM. For the same compound, the TGI (RXF 393 renal) was 41 µM, the TGI (T-47D breast) was greater than 100 µM and the TGI (HCT-116 colon) was 22.7 µM. For the same compound, the TGI (NCI-H522 lung) was 31.7 µM, the TGI (SK-MEL-2 melanoma) was 42.7 µM and the TGI (EKVX NSCLC) was 26.4 µM. The TGI (SR leukemia) was 4.39 µM, the TGI (OVCAR-5 ovarian) was 55.3 µM and the TGI (MOLT-4 leukemia) was 5.57 µM. It also gave a TGI (SK-OV-3 ovarian) of 38.8 µM, a TGI (KM12 colon) of 25.2 µM and a TGI (HOP-92 NSCLC) of 29.9 µM. The TGI (OVCAR-4 ovarian) was 25.1 µM, the TGI (M14 melanoma) was 36.6 µM and the TGI (DU-145 prostate) was 25.9 µM. The TGI (BT-549 breast) was 35.1 µM, the TGI (IGROV1 ovarian) was 28.1 µM and the TGI (A549 NSCLC) was 31.3 µM. For the same compound, the TGI (CAKI-1 renal) was 57.5 µM, the TGI (NCI/ADR-RES ovarian) was greater than 100 µM and the TGI (MDA-MB-435) was 27.8 µM. The TGI (LOX IMVI melanoma) was 29.5 µM, the TGI (COLO 205 colon) was 31.1 µM and the TGI (HS 578T breast) was 50.3 µM. It also gave a TGI (MDA-MB-231 breast) of 32.2 µM.

Reference: PubChem BioAssay (NCI)
